According to ChEMBL document CHEMBL5728770, “Heterocycle comprising tyrosine kinase inhibitors” (2021):

Target: Tyrosine-protein kinase BTK (Homo sapiens, UniProt Q06187)
Assay: Enzymatic Activity Assay: A Caliper-based kinase assay (Caliper Life Sciences, Hopkinton, Mass.) was used to measure inhibition of BTK kinase activity of a compound of the present disclosure. Serial dilutions of test compounds were incubated with human recombinant BTK (0.5 nM), ATP (16 μM) and a phosphoacceptor peptide substrate FAM-GEEPLYWSFPAKKK-NH2 (1 μM) at room temperature for 3 h. The reaction was then terminated with EDTA, final concentration 20 mM and the phosphorylated reaction product was quantified on a Caliper Desktop Profiler (Caliper LabChip 3000). Percent inhibition was calculated for each compound dilution and the concentration that produced 50% inhibition was calculated.

Chain of Tyrosine-protein kinase BTK (Q06187 whole entry): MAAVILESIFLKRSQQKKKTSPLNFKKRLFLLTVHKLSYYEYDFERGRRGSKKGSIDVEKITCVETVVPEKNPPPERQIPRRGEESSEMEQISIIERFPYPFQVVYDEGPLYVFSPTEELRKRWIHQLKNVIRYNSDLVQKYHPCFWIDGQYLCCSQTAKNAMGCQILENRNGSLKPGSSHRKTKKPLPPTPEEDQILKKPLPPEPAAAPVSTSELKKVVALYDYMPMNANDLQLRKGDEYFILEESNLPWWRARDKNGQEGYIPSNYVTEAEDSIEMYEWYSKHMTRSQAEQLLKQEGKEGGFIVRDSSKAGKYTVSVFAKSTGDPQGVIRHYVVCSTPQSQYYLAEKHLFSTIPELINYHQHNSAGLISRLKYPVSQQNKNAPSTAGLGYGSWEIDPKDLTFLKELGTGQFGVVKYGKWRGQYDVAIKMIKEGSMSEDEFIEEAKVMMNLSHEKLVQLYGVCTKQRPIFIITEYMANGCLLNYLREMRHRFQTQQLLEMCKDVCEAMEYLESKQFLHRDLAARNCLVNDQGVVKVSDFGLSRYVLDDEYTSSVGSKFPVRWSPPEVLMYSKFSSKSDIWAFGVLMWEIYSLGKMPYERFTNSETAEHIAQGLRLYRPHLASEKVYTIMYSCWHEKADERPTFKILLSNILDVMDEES

Row | Compound | IC50
1 | CN1CCN(C(C)(C)C=C(C#N)C(=O)N2CCC[C@@H](c3nc(-c4ccc(Oc5ccccc5)cc4F)c4c(N)nccn34)C2)CC1=O | 2.6 nM
2 | CC(C)(C=C(C#N)C(=O)N1CCC[C@@H](n2nc(-c3ccc(Oc4ccccc4)cc3F)c3c(N)nccc32)C1)N1CCN(C2COC2)CC1 | 1.4 nM
3 | CC(C)(C=C(C#N)C(=O)N1CCC[C@@H](n2nc(-c3ccc(Oc4ccccc4)cc3F)c3c(N)ncnc32)C1)N1CCN(C2(C)COC2)CC1 | 0.3 nM
4 | CC(C)(C=C(C#N)C(=O)N1CCC[C@@H](c2nc(-c3ccc(Oc4ccccc4)cc3F)c3c(N)nccn23)C1)N1CCN(C2(C)COC2)CC1 | 2.4 nM
5 | CC(C)(C=C(C#N)C(=O)N1CCC[C@@H](n2nc(-c3ccc(Oc4ccccc4)cc3F)c3c(N)nccc32)C1)C1(C)CCN(C2COC2)CC1 | 45.7 nM
6 | CC(C)(C=C(C#N)C(=O)N1CCC[C@@H](n2nc(-c3ccc(C(=O)Nc4ccccn4)cc3)c3c(N)nccc32)C1)N1CCN(C2COC2)CC1 | 2.2 nM
7 | Cc1cc(-c2nn([C@@H]3CCCN(C(=O)C(C#N)=CC(C)(C)N4CCN(C5COC5)CC4)C3)c3ccnc(N)c23)ccc1Oc1ccccc1 | 1.3 nM
8 | CC(C)(C=C(C#N)C(=O)N1CCC[C@@H](n2nc(-c3ccc(Oc4ccccc4)cc3F)c3c(N)nccc32)C1)N1CCN(C2(C)COC2)CC1 | 0.8 nM
9 | CC(C)(C=C(C#N)C(=O)N1CCC[C@@H](n2nc(-c3ccc(Oc4ccccc4F)cc3)c3c(N)nccc32)C1)N1CCN(C2COC2)CC1 | 2.2 nM
